Measurements taken from patent US20250154131A1 (HAINAN SIMCERE PHARMACEUTICAL CO., LTD., priority 2021, published 2025).

Molecular target: SARS-COV-2 3CL Protease (Severe acute respiratory syndrome coronavirus 2 (2019-nCoV) (SARS-CoV-2), UniProt P0DTD1)
Assay: biochemical
Format: biochemical
Settings: recombinant MBP-tagged 3CL protease, 30 min preincubation

| Structure (SMILES) | IC50 (class symbol column) | IC50 (numeric column) |
| --- | --- | --- |
| CC1(C)[C@@H]2[C@@H](C(=O)N[C@H](C#N)C[C@@H]3CCNC3=O)N(C(=O)C(NC(=O)C(F)(F)F)C3CC4(CCC4)C3)C[C@@H]21 (stereo partly drawn) [Compound 3, (1R,2S,5S)—N—((S)-1-cyano-2-((S)-2-carbonylpyrrolidin-3-yl)ethyl)-6,6-dimethyl-3-(2-(spiro[3.3]heptan-2-yl)-2-(2,2,2-trifluoroacetamido)acetyl)-3-azabicyclo[3.1.0]hexane-2-carboxamide] | 100 to 1000 nM | 525 nM |
| CC1(C)[C@@H]2[C@@H](C(=O)N[C@H](C#N)C[C@@H]3CCNC3=O)N(C(=O)[C@H](Cc3ccc4ccccc4c3)NC(=O)C(F)(F)F)C[C@@H]21 [Compound 4, (1R,2S,5S)—N—((S)-1-Cyano-2-((S)-2-carbonylpyrrolidin-3-yl)ethyl)-6,6-dimethyl-3-((S)-3-(naphthalen-2-yl)-2-(2,2,2-trifluoroacetamido)propanoyl)-3-azabicyclo[3.1.0]hexane-2-carboxamide] | 100 to 1000 nM | 273 nM |
| CN(C)CCCC[C@H](NC(=O)C(F)(F)F)C(=O)N1C[C@H]2[C@@H]([C@H]1C(=O)N[C@H](C#N)C[C@@H]1CCNC1=O)C2(C)C [Compound 7, (1R,2S,5S)—N—((S)-1-cyano-2-((S)-2-oxopyrrolidin-3-yl)ethyl)-3-(N^6,N^6-dimethyl-N^2-(2,2,2-trifluoroacetyl)-L-lysyl)-6,6-dimethyl-3-azabicyclo[3.1.0]cyclohexane-2-carboxamide] | 1000 to 10000 nM | 1110 nM |
| CC1(C)[C@@H]2[C@@H](C(=O)N[C@H](C#N)C[C@@H]3CCNC3=O)N(C(=O)[C@@H](NC(=O)C(F)(F)F)C34C[C@@H]5C[C@@H](CC(O)(C5)C3)C4)C[C@@H]21 [Compound 10, (1R,2S,5S)—N—((S)-1-Cyano-2-((S)-2-oxopyrrolidin-3-yl)ethyl)-3-((S)-2-((1R,3R,5R,7S)-3-hydroxyadamantan-1-yl)-2-(2,2,2-trifluoroacetamido)acetyl)-6,6-dimethyl-3-azabicyclo[3.1.0]hexane-2-carboxamide] | < 100 nM | 69.8 nM |
| CC(C)(C)[C@H](NC(=O)C(F)(F)F)C(=O)N1C[C@H]2[C@@H]([C@H]1C(=O)N[C@H](C#N)CC1C(=O)Nc3ncccc31)C2(C)C (stereo partly shown) [Compound 8] | < 100 nM | 33.4 nM |
| CN(C)C1CCC(C(NC(=O)C(F)(F)F)C(=O)N2C[C@H]3[C@@H]([C@H]2C(=O)N[C@H](C#N)C[C@@H]2CCNC2=O)C3(C)C)CC1 (stereo partly drawn) [Compound 6, (1R,2S,5S)—N—((S)-1-cyano-2-((S)-2-oxopyrrolidin-3-yl)ethyl)-3-(2-(4-(dimethylamino)cyclohexane)-2-(2,2,2-trifluoroacetamido)acetyl)-6,6-dimethyl-3-azabicyclo[3.1.0]cyclohexane-2-carboxamide] | 100 to 1000 nM | 449 nM |
| CC(C)(C)[C@H](NC(=O)C(F)(F)Cl)C(=O)N1C[C@H]2[C@@H]([C@H]1C(=O)N[C@H](C#N)CC1C(=O)Nc3ccccc31)C2(C)C (stereo partly drawn) [Compound 9, (1R,2S,5S)-3-((S)-2-(2-Chloro-2,2-difluoroacetamido)-3,3-dimethylbutanoyl)-N-((1S)-1-cyano-2-(2-oxoindol-3-yl)ethyl)-6,6-dimethyl-3-azabicyclo[3.1.0]hexane-2-carboxamide] | < 100 nM | 25.2 nM |
| CC1(C)[C@@H]2[C@@H](C(=O)N[C@H](C#N)CC3C(=O)Nc4ccccc43)N(C(=O)[C@@H](NC(=O)C(F)(F)F)C34CC5CC(CC(O)(C5)C3)C4)C[C@@H]21 (stereo partly drawn) [Compound 5, (1R,2S,5S)—N-((1S)-1-Cyano-2-(2-carbonylindolin-3-yl)ethyl)-3-((S)-2-((1r,3R,5R,7S)-3-hydroxyadamantan-1-yl)-2-(2,2,2-trifluoroacetamido)acetyl)-6,6-dimethyl-3-azabicyclo[3.1.0]hexane-2-carboxamide] | < 100 nM | 69.8 nM |
